# Assay results from patent publication US7374920B2, “Ginkgo biloba levopimaradiene synthase” (priority 2001, dated 2008).
# “Also recorded” adds a separate entry of the source.
# T1: Levopimaradiene synthase (Ginkgo biloba, UniProt Q947C4)
# T1 construct: thioredoxin (from pET32c(+)); made in house; host or cells: E. coli BL21(DE3), soluble fraction of the lysate
# T1 sequence (Q947C4 60-873): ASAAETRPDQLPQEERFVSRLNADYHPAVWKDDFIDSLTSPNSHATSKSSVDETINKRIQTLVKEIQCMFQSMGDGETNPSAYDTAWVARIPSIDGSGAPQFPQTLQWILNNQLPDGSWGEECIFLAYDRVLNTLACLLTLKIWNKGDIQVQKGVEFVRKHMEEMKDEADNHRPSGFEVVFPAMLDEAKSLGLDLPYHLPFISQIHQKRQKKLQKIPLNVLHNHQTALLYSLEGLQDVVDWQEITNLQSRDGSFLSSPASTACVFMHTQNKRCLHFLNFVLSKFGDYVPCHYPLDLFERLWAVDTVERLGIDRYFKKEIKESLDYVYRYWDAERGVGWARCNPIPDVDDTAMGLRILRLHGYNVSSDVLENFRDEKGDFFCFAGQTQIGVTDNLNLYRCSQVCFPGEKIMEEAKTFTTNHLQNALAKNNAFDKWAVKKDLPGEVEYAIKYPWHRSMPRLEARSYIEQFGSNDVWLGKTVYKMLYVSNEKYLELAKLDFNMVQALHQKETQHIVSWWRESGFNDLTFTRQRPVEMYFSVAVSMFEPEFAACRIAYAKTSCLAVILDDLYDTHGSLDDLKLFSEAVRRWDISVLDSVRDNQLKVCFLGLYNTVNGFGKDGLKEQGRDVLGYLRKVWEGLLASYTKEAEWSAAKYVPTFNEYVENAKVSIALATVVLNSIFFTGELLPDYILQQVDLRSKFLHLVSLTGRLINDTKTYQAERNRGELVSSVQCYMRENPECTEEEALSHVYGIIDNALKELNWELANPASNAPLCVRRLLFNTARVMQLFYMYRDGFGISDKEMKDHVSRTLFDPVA
# B1: Phe^129: Ginkgo biloba levopimaradiene synthase truncated at Cys^127-Met^128, referred to as Phe^129; SEQ.ID.NO:39 (protein, listed as Ginkgo biloba)
# chain: MFQSMGDGETNPSAYDTAWVARIPSIDGSGAPQFPQTLQWILNNQLPDGSWGEECIFLAYDRVLNTLACLLTLKIWNKGDIQVQKGVEFVRKHMEEMKDEADNHRPSGFEVVFPAMLDEAKSLGLDLPYHLPFISQIHQKRQKKLQKIPLNVLHNHQTALLYSLEGLQDVVDWQEITNLQSRDGSFLSSPASTACVFMHTQNKRCLHFLNFVLSKFGDYVPCHYPLDLFERLWAVDTVERLGIDRYFKKEIKESLDYVYRYWDAERGVGWARCNPIPDVDDTAMGLRILRLHGYNVSSDVLENFRDEKGDFFCFAGQTQIGVTDNLNLYRCSQVCFPGEKIMEEAKTFTTNHLQNALAKNNAFDKWAVKKDLPGEVEYAIKYPWHRSMPRLEARSYIEQFGSNDVWLGKTVYKMLYVSNEKYLELAKLDFNMVQALHQKETQHIVSWWRESGFNDLTFTRQRPVEMYFSVAVSMFEPEFAACRIAYAKTSCLAVILDDLYDTHGSLDDLKLFSEAVRRWDISVLDSVRDNQLKVCFLGLYNTVNGFGKDGLKEQGRDVLGYLRKVWEGLLASYTKEAEWSAAKYVPTFNEYVENAKVSIALATVVLNSIFFTGELLPDYILQQVDLRSKFLHLVSLTGRLINDTKTYQAERNRGELVSSVQCYMRENPECTEEEALSHVYGIIDNALKELNWELANPASNAPLCVRRLLFNTARVMQLFYMYRDGFGISDKEMKDHVSRTLFDPVA
# Experiments:
# [1] = system: G. biloba seedlings, plants, and trees; details: cited from earlier work; for effect on diterpenoid content: cycloartenol synthase inhibitors (Huh, et al., 1993)
# Levopimaradiene synthase = biological target: T1, Levopimaradiene synthase; assay: levopimaradiene synthase activity towards geranyl diphosphate and farnesyl diphosphate; format: biochemical; details: E. coli expression, 200 μM substrate, overnight at 32° C., GC or GC/MS
# Method: Levopimaradiene synthase was also tested for activity towards 200 μM geranyl diphosphate and farnesyl diphosphate. Cell cultures were induced and lysed as noted above. The soluble fraction of the lysate was incubated overnight at 32° C. with 200 μM substrate in 30 mM HEPES, pH 7.2, 5 mM DTT, 5% glycerol, 2 mM MgCl2 and 500 μM MnCl2, and overlaid with hexane (1 mL).
# (§1) All in vitro reactions were extracted 3× with hexane and dried over MgSO4. The reaction was further extracted twice with diethyl ether and dried over MgSO4. Thereafter, the crude lysate was suspended in 100 mM Tris, pH 8.0 containing 2.9 units/mg apyrase (a dephosphorylating agent) and 10 units/μL calf intestinal alkaline phosphatase, incubated at 30° C. for 3 hours, and extracted with diethyl ether as noted above (Croteau and Cane, 1985). The crude reaction mixtures were eluted over SiO2, concentrated, and analyzed by GC and GC/MS.
# Gas chromatography spectra were obtained on a Hewlett Packard 6890 Series GC System equipped with an Rtx-5 capillary column (Restek, 30 m×0.25 mm i.d., 0.10 μm df). The following separation conditions and temperature program were employed: injector port 250° C., FID 250° C., split ratio 39:1, helium flow 20 cm/s (0.6 mL/min), 150° C. hold 5 min, increase to 250° C. (5° C./min), hold 5 min. […]
# [2] = in vitro assay of levopimaradiene synthase constructs expressed in wild-type S. cerevisiae JBY575; format: biochemical, Saccharomyces cerevisiae; details: wild-type S. cerevisiae JBY575, galactose 48 hours, lysate with GGDP
# Method: Expression in S. cerevisiae JBY575, which represents wild-type yeast, was observed. JBY575 cells transformed with pRS426GAL inserted with the putative levopimaradiene synthase were grown in synthetic complete medium lacking uracil and supplemented with 2% glucose and 1.5% agar at 30° C. to saturation and induced with galactose for 48 hours. Cells were harvested, resuspended in lysis buffer, and mixed by vortexing over glass beads. The lysate was assayed with 60 μM GGDP in the presence and absence of 0.2% and 5% Triton X-100.
# as §1
# (§2) Gas chromatography spectra were obtained on a Hewlett Packard 6890 Series GC System equipped with an Rtx-5 capillary column (Restek, 30 m×0.25 mm i.d., 0.10 μm df). The following separation conditions and temperature program were employed: injector port 250° C., FID 250° C., split ratio 39:1, helium flow 20 cm/s (0.6 mL/min), 150° C. hold 5 min, increase to 250° C. (5° C./min), hold 5 min. GC/MS spectra were obtained on a Hewlett-Packard 5890A instrument with a 30-m DB-5 ms column (J&W Scientific Inc., 0.25 mm i.d., 0.10 μm df). The following separation conditions and temperature program were employed: injector port 280° C., transfer lines: 280° C., helium flow at 30 cm/s (1 mL/min) with splitless injection at 150° C. hold 3 min, increase to 250° C. (5° C./min), hold 5 min. Mass spectra (m/z 50 to 500) were obtained on a VG ZAB-HF reverse-geometry double-focusing instrument at 70 eV with an electron-impact ion source (200° C.). Accelerating voltage was set to 8 kV and the resolution was 1000 (10% valley).
# (§3) The skilled artisan recognizes that lysis and assay conditions should be optimized. Examples of parameters that can be adjusted to optimize conditions include altering buffer, pH, reductant, reductant concentration, metal cofactors, cofactor concentrations, glycerol concentrations, substrate concentrations, and assay temperatures. […] Maximum soluble protein production and diterpene yield were obtained with the following conditions. Cell cultures were induced with 1 mM IPTG at 20° C. with shaking for 6 hours and lysed by sonication in 30 mM HEPES, pH 7.2, 5 mM DTT, and 5% glycerol. The soluble fraction of the lysate (100 mg/1 mL) was incubated with 20 μM GGDP in 30 mM HEPES, pH 7.2, 5 mM DTT, 5% glycerol, 2 mM MgCl2, and 500 μM MnCl2 overnight at 32° C. Yeast expression was induced with galactose at 30° C. for 48 hours and the cells were lysed and assayed according to the conditions noted.
# EHY18 yeast cells = assay: in vivo expression of GbLS constructs in yeast strain EHY18 that accumulates GGDP, GC quantitation of products; format: cell-based; details: GC, GC/MS
# Method: The yeast strain of the copending application employed was EHY18 (Hart, E., 2001) which was further transformed with multiple-copy yeast expression vectors comprising an isolated and purified nucleic acid sequence of GbLS or derivatives thereof, which are described herein under control of the GAL1 inducible promoter. Yeast cells were grown to saturation in 5 mL ScD-Leu-Ura at 30° C. Cells were harvested (1300×g, 2 min, 25° C.) and resuspended in 500 μL sterile Milli-Q H2O (2×). The washed cells were resuspended in 5 mL sterile Milli-Q H2O. An aliquot of the culture (5 μL) was added to a 25 mL Corex tube containing pre-prepared 2× resin and 5 mL ScG-Leu-Ura (4% galactose) and shaken at 30° C. for 6 days. Resin was collected by filtration through a Kontes chromatography column (1.7 cm diameter) and rinsed with dI H2O until eluent was clear. The resin was incubated in 2 mL ethanol for several minutes, eluted, and repeated 2×. The combined eluents were dissolved in approximately 3 mL dI H2O and extracted (3×) with 3 mL hexane. The combined extracts were concentrated under a stream of nitrogen. GC analysis (quantitation extrapolated from 0.2 mg/mL longifolene external standard) indicated the following product profile (obtained from triplicate measurement of three cultures): 0.61±0.20 mg/L levopimaradiene, 0.04±0.01 mg/L abietadiene, 0.15±0.05 mg/L abietatriene, 0.16±0.13 mg/L (+)-copalol, and 1.79±0.90 mg/L geranylgeraniol. GC/MS fragmentation confirmed the identity of each compound.
# A large scale culture (1-L) was prepared by growing the yeast cells to saturation in 5 mL ScD-Leu-Ura at 30° C. Cells were harvested (1300×g, 2 min, 25° C.) and resuspended in 500 μL sterile Milli-Q H2O (2×). The washed cells were resuspended in 5 mL sterile Milli-Q H2O. An aliquot of the culture (1 mL) was added to a 2 L flask containing 1-L ScG-Leu-Ura (4% galactose) and 88.27 g resin in 120 mL Milli-Q H2O (pre-prepared). The resin was eluted with ethanol (3×100 mL with 20 min incubation periods), which was subsequently extracted (6×) with hexane. The combined extracts were dried over magnesium sulfate, filtered, and concentrated under reduced pressure. GC analysis (quantitation extrapolated from 0.2 mg/mL longifolene external standard) indicated the following product profile (obtained from triplicate measurement): 0.29±0.04 mg/L levopimaradiene, 0.04±0.02 mg/L abietadiene, 0.13±0.04 mg/L abietatriene, 0.11±0.02 mg/L (+)-copalol, and 0.56±0.03 mg/L geranylgeraniol. GC/MS analyses confirmed the production of the above noted diterpenes, which included hydrocarbons and an alcohol.
# Further optimization studies employed the Ser61 construct. Factors influencing diterpene production included induction period and concentration of galactose and resin in the inducing medium.
# [3] = in vitro enzymatic assay of levopimaradiene synthase constructs expressed in E. coli BL21(DE3); format: biochemical, Escherichia coli; details: E. coli BL21(DE3), soluble lysate fraction, 20 μM GGDP, overnight at 32° C., GC and GC/MS
# Method: The desired plasmids were prepared by ligating the mutated gene insert into the similarly digested vectors pET32c(+) (Novagen; Madison, Wis.) and pRS426GAL (Hua, 2000), a multiple copy yeast expression vector. These plasmids was expressed in E. coli BL21(DE3) (Novagen; Madison, Wis.). E. coli cells were grown in Luria-Bertani medium supplemented with 100 μg/mL ampicillin at 37° C. with shaking to OD600 ˜0.6. The following parameters were tested: isopropyl 1-thio-β-D-galactopyranoside (IPTG) concentration (50, 100, 250, 500, and 1000 μM); and temperature and time (20° C. for 2, 3, 4, 6, 21 hours, 22° C. for 6, 8, 16, 19, 22, 45 hours, and 30° C. for 3, 6 hours). The following assay conditions were tested to obtain maximum diterpene product yield: 30 mM HEPES (N-2-hydroxyethylpiperazine-N′-[…]), pH 6.9, 7.2, 7.6, 8.0; 30 mM Tris (tris(hydroxymethyl)aminomethane hydrochloride), pH 7.4, 7.8, 8.2; 1, 5, 10% glycerol; 1, 3, 5, 10, 20 mM DTT (dithiothreitol); 20 mM β-mercaptoethanol; 2, 5, 8% Triton X-100; 5% Tween 80; 0, 2, 7.5, 20, 50 mM MgCl2; 0, 30, 500, 1000 μM MnCl2; 2, 10, 13.3, 20, 40, 80, 200 μM GGDP; and 23° C. and 32° C. assay temperatures.
# Optimal soluble protein production and diterpene yield were obtained with the following conditions. Cell cultures were induced with 1 mM IPTG at 20° C. with shaking for 6 hours and lysed by sonication in 30 mM HEPES, pH 7.2, 5 mM DTT, and 5% glycerol. The soluble fraction of the lysate (100 mg/mL) was incubated with 20 μM GGDP in 30 mM HEPES, pH 7.2, 5 mM DTT, 5% glycerol, 2 mM MgCl2, and 500 μM MnCl2 overnight at 32° C.
# as §1, §2
# as §3, with “Yeast expression was induced with galactose at 30° C. for 48 hours and the cells were lysed and assayed according to the conditions noted.” left out
molecule,measurement,setting,value
Cc1cc(OC(=O)N2CCCCC2)c(C(C)C)cc1[N+](C)(C)C.[Cl-] [AMO-1618],effect on diterpenoid content,[1],Variable results
COc1ccc(C(O)(c2cncnc2)C2CC2)cc1 (stereo not shown) [ancymidol],effect on diterpenoid content,[1],Variable results
CC(C)=CCC/C(C)=C/COP(=O)(O)OP(=O)(O)O [geranyl diphosphate],terpene formation from alternative substrate,Levopimaradiene synthase,did not produce any identifiable terpenes
fluridone,increase in ginkgolides,"[1]; application to G. biloba (Huh, et al., 1993)",up to 78%
B1,diterpene product on yeast expression,[2],failed to produce observable levels of any diterpene product; also recorded: failed to produce detectable levels of biosynthetic product
same,diterpene products on expression in EHY18,EHY18 yeast cells,no diterpene alcohol or hydrocarbon formation
same,diterpene product on bacterial expression,[3],failed to produce detectable levels of any diterpene; also recorded: complete loss of enzymatic activity
